Reference: patent US9688624B2, “DP2 antagonist and uses thereof” (Brickell Biotech, Inc., priority 2010, dated 2017)

Legend:
CYP2C19 = CYP2C19 (Homo sapiens (Human), UniProt P33261); test: Extracellular cytochrome P450 inhibition (microsomes); conditions: 2C19, mephenytoin 4′-hydroxylation
[1] = Metabolites of Compound 1 (active metabolites)
Description: Compound 1 metabolites formed during incubation of Compound 1 with rat, dog, and human liver microsomes, rat and human hepatocytes, as well as those generated in vivo and isolated from rat bile and rat and dog plasma have been investigated. Authentic standards of the majority of the metabolites have been chemically synthesized. The identity of the in vitro and in vivo metabolites were confirmed by comparison with the authentic standard and/or by the fragmentation pattern observed following LC-MS/MS analysis.

Chain of CYP2C19 (P33261 whole entry): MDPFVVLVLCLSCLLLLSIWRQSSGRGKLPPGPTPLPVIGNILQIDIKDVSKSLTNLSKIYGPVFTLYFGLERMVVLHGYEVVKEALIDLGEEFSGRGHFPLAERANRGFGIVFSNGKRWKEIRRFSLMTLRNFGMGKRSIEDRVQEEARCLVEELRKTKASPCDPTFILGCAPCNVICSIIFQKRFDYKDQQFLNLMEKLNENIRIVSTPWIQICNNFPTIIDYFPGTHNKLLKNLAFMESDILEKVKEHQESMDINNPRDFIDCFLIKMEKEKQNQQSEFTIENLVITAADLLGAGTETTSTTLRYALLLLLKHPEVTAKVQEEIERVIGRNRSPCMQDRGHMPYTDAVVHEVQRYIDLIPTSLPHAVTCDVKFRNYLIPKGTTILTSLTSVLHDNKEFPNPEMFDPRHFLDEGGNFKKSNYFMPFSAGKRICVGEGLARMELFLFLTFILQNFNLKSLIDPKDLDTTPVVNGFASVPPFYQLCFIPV

| SMILES | IC50 (CYP2C19) | activity of metabolite [1] |
| --- | --- | --- |
| CCC1(c2ccccc2)C(=O)NC(=O)N(Cc2ccccc2)C1=O (single isomer, unassigned; (-)) [(-)-N-3-benzyl-phenobarbital, reference compound] | 8.7 µM |  |
| COc1ccc(CC(=O)O)cc1Oc1ccc(NC(=O)C(C)(C)C)cc1CS(=O)(=O)C(C)(C)C [Compound M2, 2-(3-(2-(tert-butylsulfonylmethyl)-4-pivalamidophenoxy)-4-methoxyphenyl)acetic acid] |  | active |
| COc1ccc(CC(=O)O)cc1Oc1ccc(NC(=O)C(C)(C)C)cc1C[S+]([O-])C(C)(C)C (centres unmarked) [Compound M1, 2-(3-(2-(tert-butylsulfinylmethyl)-4-pivalamidophenoxy)-4-methoxyphenyl)acetic acid] |  | active |
| CC(C)(C)SCc1cc(NC(=O)C(C)(C)C)ccc1Oc1cc(CC(=O)O)ccc1O [Compound M3, 2-(3-(2-(tert-butylthiomethyl)-4-pivalamidophenoxy)-4-hydroxyphenyl)acetic acid] |  | active |
| CC(C)(C)C(=O)Nc1ccc(Oc2cc(CC(=O)O)ccc2O)c(C[S+]([O-])C(C)(C)C)c1 (centres unmarked) [Compound M5, 2-(3-(2-(tert-butylsulfinylmethyl)-4-pivalamidophenoxy)-4-hydroxyphenyl)acetic acid] |  | active |
